Earlier results on one compound are cited in US20120015880A1 (priority 2008, published 2012).

The term bioavailability denotes the share of a dose that reaches the circulation, judged against a reference dose that is usually intravenous.

Each structure is given as a SMILES string. Like-named read-outs stand apart in the source and are kept apart here.

For the series the following is noted: in vivo.

Take `NC(=O)CC[C@@H]1NC(=O)[C@H](Cc2ccccc2)NC(=O)[C@H](Cc2ccc(O)cc2)NC(=O)CCSSC[C@@H](C(=O)N2CCC[C@H]2C(=O)N[C@H](CCCN=C(N)N)C(=O)NCC(N)=O)NC(=O)[C@H](CC(N)=O)NC1=O` [desmopressin, 1-desamino-8-D-arginine vasopressin]: under “human”, the bioavailability is on record as about 100% and the half life is about 1.5 h. In addition, for the setting “human, inhaled or intranasal”, the bioavailability is reported as 3-5% and the “range of Cmax between patients” value was 6-10 fold. In addition, the bioavailability entry (po) is recorded as “far less than one percent”.
